Patent US20100143383A1, “OXGR1 AGONISTS FOR USE IN THERAPIES FOR METABOLIC DISORDERS” (priority 2008, published 2010)

Key:
recombinant human OXGR1 = recombinant human OXGR1 (Homo sapiens, UniProt Q96P68); settings: Nature 429:188-193, 2004, read-out: EC50 for activation of OXGR1; cited from earlier work
isolated mouse islets = assay: glucose-stimulated insulin secretion (GSIS/GDIS) in isolated mouse islets, insulin by ELISA; assay type: cell-based; settings: WT C57BL/6J mouse islets, 60 min, FIG. 3
Experimental: Pancreatic islets of Langerhans were isolated from the pancreata of wild type (WT) C57BL/6J mice (Taconic Farm, N.Y.) by collagenase digestion and discontinuous Ficoll gradient separation, a modification of the original method of Lacy and Kostianovsky (Lacy P E, Kostianovsky M: Diabetes 16:35-39, 1967). The islets were cultured overnight in RPMI 1640 medium (11 mM glucose) before GDIS assay.
To measure GSIS, islets were first preincubated for 30 min in the Krebs-Ringer bicarbonate (KRB) buffer with 2 mM glucose (in petri dishes). The KRB medium contains 143.5 mM Na+, 5.8 mM K+, 2.5 mM Ca2+, 1.2 mM Mg2+, 124.1 mM Cl−, 1.2 mM PO43−, 1.2 mM […], 25 mM CO32−2 mg/ml bovine serum albumin (pH 7.4). The islets were then transferred to a 96-well plate (one islet/well) and incubated at 37° C. for 60 min in 200 μl of KRB buffer with 2 or 16 mM glucose, and other agents to be tested such as GLP-1 included as a control. (Zhou Y P, et al: J Biol Chem 278:51316-51323, 2003). Insulin was measured in aliquots of the incubation buffer by ELISA with a commercial kit (ALPCO Diagnostics, Windham, N.H.).
The compound had no effects on the basal insulin secretion at 2 mM glucose (G2).

recombinant mouse OXGR1 = recombinant mouse OXGR1 (Mus musculus, UniProt Q6IYF8); settings: Nature 429:188-193, 2004, read-out: EC50 for activation of OXGR1; cited from earlier work
recombinant mouse OXGR1, sequence (Q6IYF8 whole entry): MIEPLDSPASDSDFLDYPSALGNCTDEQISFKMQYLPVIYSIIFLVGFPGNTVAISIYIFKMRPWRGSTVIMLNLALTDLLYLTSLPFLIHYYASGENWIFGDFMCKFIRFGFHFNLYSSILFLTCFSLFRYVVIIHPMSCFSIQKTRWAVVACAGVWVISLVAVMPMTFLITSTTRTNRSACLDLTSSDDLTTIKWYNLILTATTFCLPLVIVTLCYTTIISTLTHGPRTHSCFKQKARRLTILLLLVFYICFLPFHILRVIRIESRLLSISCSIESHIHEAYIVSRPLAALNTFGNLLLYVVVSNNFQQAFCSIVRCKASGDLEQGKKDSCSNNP

recombinant human OXGR1, sequence (Q96P68 whole entry): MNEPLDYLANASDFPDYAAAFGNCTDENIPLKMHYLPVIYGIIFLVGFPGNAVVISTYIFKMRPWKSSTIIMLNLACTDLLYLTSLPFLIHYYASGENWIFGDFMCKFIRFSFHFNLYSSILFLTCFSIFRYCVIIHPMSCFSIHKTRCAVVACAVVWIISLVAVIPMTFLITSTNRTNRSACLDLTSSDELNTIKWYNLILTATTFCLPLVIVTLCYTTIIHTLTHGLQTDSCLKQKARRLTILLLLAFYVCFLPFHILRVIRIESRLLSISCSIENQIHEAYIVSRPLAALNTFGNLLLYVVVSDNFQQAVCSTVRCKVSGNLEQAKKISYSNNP

For `O=C(O)CCC(=O)C(=O)O` [α-KG, α-ketoglutarate], the EC50 (recombinant human OXGR1) is listed as 70 µM, the “effect on basal insulin secretion at 2 mM glucose (G2)” value (isolated mouse islets; 2 mM glucose) is listed as “no effects” and the “effect on 16 mM glucose (G16) stimulated insulin secretion” value (isolated mouse islets; 16 mM glucose) is listed as “dose-dependently enhanced”. For the same compound, the EC50 (recombinant mouse OXGR1) was 70 µM.
